Results from patent publication US7060683B2, “Hydroxamate-containing cysteine and serine protease inhibitors” (Cephalon, Inc., priority 1998, dated 2006).

Target: T1, Recombinant human calpain I (Homo sapiens, UniProt P07384)
T1 construct: made in house
T1 sequence (P07384 1-714): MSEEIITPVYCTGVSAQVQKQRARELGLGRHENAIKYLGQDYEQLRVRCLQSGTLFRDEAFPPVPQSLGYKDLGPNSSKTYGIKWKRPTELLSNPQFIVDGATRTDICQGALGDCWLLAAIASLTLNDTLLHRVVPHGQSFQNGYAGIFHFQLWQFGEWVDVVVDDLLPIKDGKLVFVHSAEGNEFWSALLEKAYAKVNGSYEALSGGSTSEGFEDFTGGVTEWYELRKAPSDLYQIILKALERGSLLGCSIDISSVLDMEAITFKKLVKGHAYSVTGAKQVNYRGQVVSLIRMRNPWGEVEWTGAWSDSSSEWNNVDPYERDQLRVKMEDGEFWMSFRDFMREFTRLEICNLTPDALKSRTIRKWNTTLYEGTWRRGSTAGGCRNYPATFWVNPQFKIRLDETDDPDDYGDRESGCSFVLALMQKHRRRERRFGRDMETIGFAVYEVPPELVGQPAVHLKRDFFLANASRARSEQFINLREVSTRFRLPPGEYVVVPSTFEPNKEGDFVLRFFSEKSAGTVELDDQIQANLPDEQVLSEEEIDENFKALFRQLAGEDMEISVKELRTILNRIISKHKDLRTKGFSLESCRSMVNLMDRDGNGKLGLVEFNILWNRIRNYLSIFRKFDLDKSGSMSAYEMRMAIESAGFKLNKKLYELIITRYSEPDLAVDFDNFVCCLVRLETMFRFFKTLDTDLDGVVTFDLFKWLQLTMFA
T1 sequence (P04632 1-268 partner): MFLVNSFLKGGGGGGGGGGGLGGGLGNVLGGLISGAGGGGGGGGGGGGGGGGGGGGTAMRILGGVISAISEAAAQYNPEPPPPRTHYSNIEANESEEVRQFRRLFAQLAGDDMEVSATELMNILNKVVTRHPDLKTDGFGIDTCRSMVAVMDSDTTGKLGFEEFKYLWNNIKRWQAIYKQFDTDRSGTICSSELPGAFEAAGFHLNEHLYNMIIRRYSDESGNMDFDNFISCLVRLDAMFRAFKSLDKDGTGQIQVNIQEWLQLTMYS
Assay: Inhibition of Calpain (Succ-Leu-Tyr-MNA substrate hydrolysis)
Type: biochemical
Settings: 0.2 mM Succ-Leu-Tyr-MNA, pH 7.5, five to seven concentrations
Description: To evaluate inhibitory activity, stock solutions (40 times concentrated) of each compound to be tested were prepared in 100% anhydrous DMSO and 5 μL of each inhibitor preparation were aliquoted into each of three wells of a 96-well plate. Recombinant human calpain I, prepared by the method of Meyer et al. (Biochem., J. 1996, 314: 511–519), was diluted into assay buffer (i.e., 50 mM Tris, 50 mM NaCl, 1 mM EDTA, 1 mM EGTA, and 5 mM β-mercaptoethanol, pH 7.5, including 0.2 mM Succ-Leu-Tyr-MNA), and 175 μl was aliquoted into the same wells containing the independent inhibitor stocks as well as to positive control wells containing 5 μl DMSO, but no compound. To start the reaction, 20 μl of 50 mM CaCl2 in assay buffer was added to all wells of the plate, excepting three, which were used as background signal baseline controls. Substrate hydrolysis was monitored every 5 minutes for a total of 30 minutes.
Inhibition of calpain I activity was calculated as the percent decrease in the rate of substrate hydrolysis in the presence of inhibitor relative to the rate in its absence. Comparison between the inhibited and control rates was made within the linear range for substrate hydrolysis. The IC50s of inhibitors (concentration yielding 50% inhibition) were determined from the percent decrease in rates of substrate hydrolysis in the presence of five to seven different concentrations of the test compound. The results were plotted as percent inhibition versus log inhibitor concentration, and the IC50 was calculated by fitting the data to the four-parameter logistic equation shown below using the program GraphPad Prism (GraphPad Software, Inc., San Diego, Calif.). y=d+[(a−d)/(1+(x/c)^b)]
The parameters a, b, c, and d are defined as follows: a is % inhibition in the absence of inbibitor, b is the slope, c is the IC50, and d is the % innibition at an infinite concentration of inhibitor.

| SMILES | IC50 |
| --- | --- |
| CONC(=O)C(=O)[C@H](Cc1ccccc1)NC(=O)[C@H](CC(C)C)NC(=O)OCc1ccccc1 [Example 1, Cbz-Leu-Phe-CONHOCH3] | 10 nM |
| CCONC(=O)C(=O)[C@H](Cc1ccccc1)NC(=O)[C@H](CC(C)C)NC(=O)OCc1ccccc1 [Example 2, Cbz-Leu-Phe-CONHOEt] | 19 nM |
| CC(C)C[C@H](NC(=O)OCc1ccccc1)C(=O)N[C@@H](Cc1ccccc1)C(=O)C(=O)NOCc1ccccc1 [Example 3, Cbz-Leu-Phe-CONHOBn] | 6 nM |
| CC(C)C[C@H](NC(=O)OCc1ccccc1)C(=O)N[C@@H](Cc1ccccc1)C(=O)C(=O)NOCc1c(F)c(F)c(F)c(F)c1F [Example 4, Cbz-Leu-Phe-CONHOCH2C6F5] | 17 nM |
| CC(C)C[C@H](NC(=O)OCc1ccccc1)C(=O)N[C@@H](Cc1ccccc1)C(=O)C(=O)NOC(C)(C)C [Example 5, Cbz-Leu-Phe-CONHOtBu] | 26 nM |
| CC(C)C[C@H](NC(=O)OCc1ccccc1)C(=O)N[C@@H](Cc1ccccc1)C(=O)C(=O)NOC1CCC(C)CC1 (stereo partly drawn) [Example 6, Cbz-Leu-Phe-CONHO(4-methylcyclohexane)] | 21 nM |
| COC[C@H](NC(=O)[C@@H](COCc1ccccc1)NS(C)(=O)=O)C(=O)C(=O)NOCc1ccccc1 [Example 7, CH3SO2-D-Ser(Bn)-Ser(Me)-CONHOBn] | 152 nM |
| CS(=O)(=O)N[C@H](COCc1ccccc1)C(=O)N[C@@H](Cc1ccccc1)C(=O)C(=O)NOCc1ccccc1 [Example 8, CH3SO2-D-Ser(Bn)-Phe-CONHOBn] | 28 nM |
| CCONC(=O)C(=O)[C@H](Cc1ccccc1)NC(=O)[C@@H](COCc1ccccc1)NS(C)(=O)=O [Example 9] | 56 nM |
| CCCC[C@H](NC(=O)[C@@H](NC(=O)OCc1ccccc1)C(C)C)C(=O)C(=O)NOCc1ccccc1 [Example 11, Cbz-Val-Nle-CONHOBn] | 21 nM |
| CONC(=O)C(=O)[C@H](Cc1ccccc1)NC(=O)[C@H](CC(C)C)NC(=O)[C@H](CC(C)C)NC(=O)OCc1ccccc1 [Example 12, Cbz-Leu-Leu-Phe-CONHOCH3] | 20 nM |
| CC(C)C[C@H](NC(=O)OCc1ccccc1)C(=O)N[C@@H](CC(C)C)C(=O)N[C@@H](Cc1ccccc1)C(=O)C(=O)NOCc1ccccc1 [Example 13, Cbz-Leu-Leu-Phe-CONHOBn] | 17 nM |
| CCCCONC(=O)C(=O)[C@H](Cc1ccccc1)NC(=O)[C@H](CC(C)C)NC(=O)OCc1ccccc1 [Example 14, Cbz-Leu-Phe-CONHOBu] | 183 nM |
| CCCC[C@H](NC(=O)[C@H](Cc1ccccc1)NC(=O)c1ccccc1)C(=O)C(=O)NOCC [Example 15, PhCO-Phe-Nle-CONHOEt] | 193 nM |
